Test results reported in patent US20250049806A1, “PHARMACEUTICAL COMPOSITION FOR PROVIDING TREATMENT FOR OR PREVENTING ALPORT SYNDROME” (UBE Corporation, priority 2021, published 2025).

test: Transcellular transport test using Caco2 cell; format: in vitro ADME; details: human, Caco-2, apical-to-basolateral (A-to-B), pH=7.4, 10 µM compound
Procedure: Caco2 cells (purchased from ATCC) were cultured in DMEM medium (Thermo Fisher Scientific, Inc., 11965) containing 10% FBS (Thermo Fisher Scientific, Inc., 10082) and 1% penicillin/streptomycin/amphotericin B (Thermo Fisher Scientific, Inc., 15240). A transcellular transport test was carried out in accordance with MultiScreen Caco2 Drug Transport Assembly in a 96-well system (Application Note AN1727EN, MultiScreen Caco-2 Assay System, Merck) by partially modifying it. The Caco2 cells were inoculated at a cell density of 4×10^4 cells/well onto a micropore polycarbonate insert of a 96-well plate (Merck, Millcell-96 culture insert plate 0.4 μm pore size, well membrane area=0.11 cm^2, PSHT004S5) and cultured for 20 to 22 days, and the resulting monolayer was used in the transcellular transport test. The medium of the inoculated cells was replaced with a fresh one every 3 to 4 days.
Apical-to-basolateral (A-to-B) transport in the Caco2 cell monolayer membrane was performed by using HBSS (Thermo Fisher Scientific, Inc., 14025) medium (pH=7.4) containing 20 mM HEPES (Thermo Fisher Scientific, Inc., 15630), and adding HEPES-containing HBSS medium containing 10 µM compound (a 10 mM solution of the compound in DMSO was added at a 1000-fold dilution; final DMSO concentration: 0.1%) at 75 μL/well to the apical side and HEPES-containing HBSS medium supplemented with no compound at 250 μL/well to the basolateral side, followed by culture at 37° C. for 90 minutes. After culture, a 100 μL aliquot was collected from the basolateral side, and the concentration of a permeated compound was measured by LC-MS/MS under measurement conditions mentioned later. Papp (apparent permeability; cm/sec) was calculated from the determined concentration. Papp was determined according to the expression given below by calculating the slope (dA/dt; nmol/sec) of a straight line drawn between two points 0 minutes and zero amount of the compound in a graph plotted with an assay time (90 min) on the abscissa against the amount of the compound in the solution on the permeated side on the ordinate. As for an assay concentration, the concentration in the compound in the HEPES-containing HBSS medium containing the added compound was measured by UV-HPLC under measurement conditions mentioned later.
C0: assay concentration, S: plate membrane area=0.11 cm^2
• LC: LC20 or LC30 HPLC system manufactured by Shimadzu Corp. • Column: Phenomenex Kinetex C18 (50 mm×2.1 mm, 2.6 μm) • Column temperature: 40° C. • Flow rate: 0.3 mL/min • Mobile phase A: 0.1% aqueous formic acid solution • Mobile phase B: 0.1% formic acid, 50% acetonitrile/methanol mixed solution • Gradient: 0-2 min; A/B=90/10 to 10/90, 2-3 min; A/B=10/90, 3-3.01 min; A/B=10/90 to 90/10 • MS: Q-Trap3200 manufactured by AB Sciex Pte. Ltd. • Ionization: ESI • Mode: Positive
• LC: LC20 or LC30 HPLC system manufactured by Shimadzu Corp. • Column: Phenomenex Kinetex C18 (100 mm×2.1 mm, 2.6 μm) • Column temperature: 40° C. • Flow rate: 0.25 mL/min • Mobile phase A: 0.1% aqueous formic acid solution • Mobile phase B: 0.1% formic acid, 50% acetonitrile/methanol mixed solution • Gradient: 0-3 min; A/B=90/10, 3-11 min; A/B=90/10 to 5/95, 11-15 min; A/B=5/95, 15-15.1 min; A/B=5/95 to 90/10 • UV detector: photodiode array detector
A: Papp>1×10^−6 (cm/sec), B: 1×10^−6 (cm/sec)≥Papp>5×10^−7 (cm/sec), C: 5×10^−7 (cm/sec)≥Papp>1×10^−7 (cm/sec), or D: Papp≤1×10^−7 (cm/sec).

With `O=C(O)C[C@H](NC(=O)CNC(=O)c1cc(NC2=NCC(F)CN2)c2c(Cl)n[nH]c2c1)c1cc(Cl)cc(C(F)(F)F)c1` (stereo partly drawn) [49-(b), (3S)-3-(2-(3-chloro-4-((5-fluoro-1,4,5,6-tetrahydropyrimidin-2-yl)amino)-1H-indazole-6-carboxamido)acetamido)-3-(3-chloro-5-(trifluoromethyl)phenyl)propanoic acid] as the compound, how does the Papp A→B at 90 min, 10 µM read?
Its Papp A→B at 90 min, 10 µM is 0.5 to 1 ×10⁻⁶ cm/s.

Which Papp A→B at 90 min, 10 µM does the source give for `O=C(O)C[C@H](NC(=O)CNC(=O)c1cc(NC2=NCC(F)CN2)c2cn[nH]c2c1)c1cc(Cl)ccc1F` (stereo partly drawn) [22-(b), (3S)-3-(5-chloro-2-fluorophenyl)-3-(2-(4-((5-fluoro-1,4,5,6-tetrahydropyrimidin-2-yl)amino)-1H-indazole-6-carboxamido)acetamido)propanoic acid] here?
Its Papp A→B at 90 min, 10 µM is over 1 ×10⁻⁶ cm/s.

With `O=C(O)C[C@H](NC(=O)CNC(=O)c1cc(NC2=NCC(F)CN2)c2cn[nH]c2c1)c1cc(Br)cc(Br)c1` (stereo partly drawn) [19-(b), (3S)-3-(3,5-dibromophenyl)-3-(2-(4-((5-fluoro-1,4,5,6-tetrahydropyrimidin-2-yl)amino)-1H-indazole-6-carboxamido)acetamido)propanoic acid] as the compound, how does the Papp A→B at 90 min, 10 µM read?
The Papp A→B at 90 min, 10 µM was over 1 ×10⁻⁶ cm/s.

For `O=C(O)C[C@H](NC(=O)CNC(=O)c1cc(NC2=NCC(F)CN2)cc2[nH]ncc12)c1cccc(C(F)(F)F)c1` (stereo partly drawn) [56-(b), (3S)-3-(2-(6-((5-fluoro-1,4,5,6-tetrahydropyrimidin-2-yl)amino)-1H-indazole-4-carboxamido)acetamido)-3-(3-(trifluoromethyl)phenyl)propanoic acid], which Papp A→B at 90 min, 10 µM is on record?
The Papp A→B at 90 min, 10 µM was 0.1 to 0.5 ×10⁻⁶ cm/s.

With `O=C(O)C[C@H](NC(=O)CNC(=O)c1cc(NC2=NCC(F)CN2)c2cn[nH]c2c1)c1cc(OC(F)(F)F)ccc1F` (stereo partly drawn) [33-(b), (3S)-3-(2-(4-((5-fluoro-1,4,5,6-tetrahydropyrimidin-2-yl)amino)-1H-indazole-6-carboxamido)acetamido)-3-(2-fluoro-5-(trifluoromethoxy)phenyl)propanoic acid] as the compound, how does the Papp A→B at 90 min, 10 µM read?
Its Papp A→B at 90 min, 10 µM is over 1 ×10⁻⁶ cm/s.

With `O=C(O)C[C@H](NC(=O)CNC(=O)c1cc(NC2=NCC(F)CN2)c2cn[nH]c2c1)c1cc(C(F)(F)F)cc(C(F)(F)F)c1` (stereo partly drawn) [7-(b), (3S)-3-(3,5-bis(trifluoromethyl)phenyl)-3-(2-(4-((5-fluoro-1,4,5,6-tetrahydropyrimidin-2-yl)amino)-1H-indazole-6-carboxamido)acetamido)propanoic acid] as the compound, how does the Papp A→B at 90 min, 10 µM read?
The Papp A→B at 90 min, 10 µM was 0.5 to 1 ×10⁻⁶ cm/s.

For `O=C(O)C[C@H](NC(=O)CNC(=O)c1cc(NC2=NCC(F)CN2)c2cn[nH]c2c1)c1cc(Cl)cc(Cl)c1` (stereo partly drawn) [17-(b), (3S)-3-(3,5-dichlorophenyl)-3-(2-(4-((5-fluoro-1,4,5,6-tetrahydropyrimidin-2-yl)amino)-1H-indazole-6-carboxamido)acetamido)propanoic acid], which Papp A→B at 90 min, 10 µM is on record?
Its Papp A→B at 90 min, 10 µM is over 1 ×10⁻⁶ cm/s.

With `O=C(O)C[C@H](NC(=O)CNC(=O)c1cc(NC2=NCC(F)CN2)cc2[nH]ncc12)c1cc(Br)cc(C(F)(F)F)c1` (stereo partly drawn) [53-(b), (3S)-3-(3-bromo-5-(trifluoromethyl)phenyl)-3-(2-(6-((5-fluoro-1,4,5,6-tetrahydropyrimidin-2-yl)amino)-1H-indazole-4-carboxamido)acetamido)propanoic acid] as the compound, how does the Papp A→B at 90 min, 10 µM read?
Its Papp A→B at 90 min, 10 µM is 0.1 to 0.5 ×10⁻⁶ cm/s.

With `O=C(O)C[C@H](NC(=O)CNC(=O)c1cc(NC2=NCC(F)CN2)c2c(F)n[nH]c2c1)c1cc(Cl)cc(C(F)(F)F)c1` (stereo partly drawn) [48-(b), (3S)-3-(3-chloro-5-(trifluoromethyl)phenyl)-3-(2-(3-fluoro-4-((5-fluoro-1,4,5,6-tetrahydropyrimidin-2-yl)amino)-1H-indazole-6-carboxamido)acetamido)propanoic acid] as the compound, how does the Papp A→B at 90 min, 10 µM read?
The Papp A→B at 90 min, 10 µM was over 1 ×10⁻⁶ cm/s.

For `O=C(O)C[C@H](NC(=O)CNC(=O)c1cc(NC2=NCC(O)CN2)c2cn[nH]c2c1)c1cc(Cl)cc(C(F)(F)F)c1` (stereo partly drawn) [50-(b), (3S)-3-(3-chloro-5-(trifluoromethyl)phenyl)-3-(2-(4-((5-hydroxy-1,4,5,6-tetrahydropyrimidin-2-yl)amino)-1H-indazole-6-carboxamido)acetamido)propanoic acid], which Papp A→B at 90 min, 10 µM is on record?
Its Papp A→B at 90 min, 10 µM is over 1 ×10⁻⁶ cm/s.

With `O=C(O)C[C@H](NC(=O)CNC(=O)c1cc(NC2=NCC(F)CN2)c2cn[nH]c2c1)c1cc(Br)cc(OC(F)F)c1` (stereo partly drawn) [26-(b), (3S)-3-(3-bromo-5-(difluoromethoxy)phenyl)-3-(2-(4-((5-fluoro-1,4,5,6-tetrahydropyrimidin-2-yl)amino)-1H-indazole-6-carboxamido)acetamido)propanoic acid] as the compound, how does the Papp A→B at 90 min, 10 µM read?
The Papp A→B at 90 min, 10 µM was over 1 ×10⁻⁶ cm/s.

Which Papp A→B at 90 min, 10 µM does the source give for `O=C(O)C[C@H](NC(=O)CNC(=O)c1cc(NC2=NCC(F)CN2)c2cn[nH]c2c1)c1cccc(-n2cccn2)c1` (stereo partly drawn) [43-(b), (3S)-3-(3-(1H-pyrazol-1-yl)phenyl)-3-(2-(4-((5-fluoro-1,4,5,6-tetrahydropyrimidin-2-yl)amino)-1H-indazole-6-carboxamido)acetamido)propanoic acid] here?
The Papp A→B at 90 min, 10 µM was over 1 ×10⁻⁶ cm/s.

Which Papp A→B at 90 min, 10 µM does the source give for `O=C(O)C[C@H](NC(=O)CNC(=O)c1cc(NC2=NCC(F)CN2)c2cn[nH]c2c1)c1cc(C(F)(F)F)ccc1F` (stereo partly drawn) [11-(b), (3S)-3-(2-(4-((5-fluoro-1,4,5,6-tetrahydropyrimidin-2-yl)amino)-1H-indazole-6-carboxamido)acetamido)-3-(2-fluoro-5-(trifluoromethyl)phenyl)propanoic acid] here?
Its Papp A→B at 90 min, 10 µM is over 1 ×10⁻⁶ cm/s.

With `O=C(O)C[C@H](NC(=O)CNC(=O)c1cc(NC2=NCC(F)CN2)c2cn[nH]c2c1)c1cc(OC(F)F)ccc1F` (stereo partly drawn) [28-(b), (3S)-3-(5-(difluoromethoxy)-2-fluorophenyl)-3-(2-(4-((5-fluoro-1,4,5,6-tetrahydropyrimidin-2-yl)amino)-1H-indazole-6-carboxamido)acetamido)propanoic acid] as the compound, how does the Papp A→B at 90 min, 10 µM read?
Its Papp A→B at 90 min, 10 µM is over 1 ×10⁻⁶ cm/s.

For `O=C(O)C[C@H](NC(=O)CNC(=O)c1cc(NC2=NCC(F)CN2)c2cn[nH]c2c1)c1cc(Cl)cc(OC(F)F)c1` (stereo partly drawn) [25-(b), (3S)-3-(3-chloro-5-(difluoromethoxy)phenyl)-3-(2-(4-((5-fluoro-1,4,5,6-tetrahydropyrimidin-2-yl)amino)-1H-indazole-6-carboxamido)acetamido)propanoic acid], which Papp A→B at 90 min, 10 µM is on record?
The Papp A→B at 90 min, 10 µM was over 1 ×10⁻⁶ cm/s.

With `O=C(O)C[C@H](NC(=O)CNC(=O)c1cc(NC2=NCC(F)CN2)c2cn[nH]c2c1)c1cc(Cl)c(F)c(C(F)(F)F)c1` (stereo partly drawn) [15-(b), (3S)-3-(3-chloro-4-fluoro-5-(trifluoromethyl)phenyl)-3-(2-(4-((5-fluoro-1,4,5,6-tetrahydropyrimidin-2-yl)amino)-1H-indazole-6-carboxamido)acetamido)propanoic acid] as the compound, how does the Papp A→B at 90 min, 10 µM read?
The Papp A→B at 90 min, 10 µM was over 1 ×10⁻⁶ cm/s.

With `O=C(O)C[C@H](NC(=O)CNC(=O)c1cc(NC2=NCC(F)CN2)c2cn[nH]c2c1)c1cc(Cl)cc(I)c1` (stereo partly drawn) [21-(b), (3S)-3-(3-chloro-5-iodophenyl)-3-(2-(4-((5-fluoro-1,4,5,6-tetrahydropyrimidin-2-yl)amino)-1H-indazole-6-carboxamido)acetamido)propanoic acid] as the compound, how does the Papp A→B at 90 min, 10 µM read?
Its Papp A→B at 90 min, 10 µM is over 1 ×10⁻⁶ cm/s.

With `O=C(O)C[C@H](NC(=O)CNC(=O)c1cc(NC2=NCC(F)CN2)c2cn[nH]c2c1)c1cccc(C(F)F)c1` (stereo partly drawn) [38-(b), (3S)-3-(3-(difluoromethyl)phenyl)-3-(2-(4-((5-fluoro-1,4,5,6-tetrahydropyrimidin-2-yl)amino)-1H-indazole-6-carboxamido)acetamido)propanoic acid] as the compound, how does the Papp A→B at 90 min, 10 µM read?
The Papp A→B at 90 min, 10 µM was over 1 ×10⁻⁶ cm/s.
